Experimental data published in US20260317319A1, “NOVEL ERGOLINES AND METHODS OF TREATING MOOD DISORDERS” (Gilgamesh Pharma Inc., priority 2023, published 2026).
Like-named read-outs stand apart in the source and are kept apart here.

How the values were obtained:
5-HT2B receptor = target: T1, 5-HT2B receptor (Homo sapiens, UniProt P41595); assay: cell-based; assay type: cell-based; conditions: Ca2+ flux; for Emax: HEK293, agonist, HEK293, max dose, read-out: 5-HT2B % Act @ Max Dose
T1 construct: expressed in transfected cells; host or cells: HEK293, stably transfected
Outline: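 FLIPR Tetra fluorescence read-out of calcium flux after compound addition. Receptor-expressing stable lines were used (HEK293 for 2A/2B; CHO with Gα15 for 1A), dye-loaded with Fluo-4 Direct and 2.5 mM final probenecid, 50 min at 37 °C.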

5-HT1A receptor = target: T2, 5-HT1A receptor (Homo sapiens, UniProt P08908); assay: cell-based; conditions: agonist, Ca2+ flux; for Emax: CHO, CHO cells with Gα15, max dose, read-out: 5-HT1A % Act @ Max Dose
T2 construct: expressed in transfected cells; host or cells: CHO cells, stably transfected
T2 sequence (P08908 1-422): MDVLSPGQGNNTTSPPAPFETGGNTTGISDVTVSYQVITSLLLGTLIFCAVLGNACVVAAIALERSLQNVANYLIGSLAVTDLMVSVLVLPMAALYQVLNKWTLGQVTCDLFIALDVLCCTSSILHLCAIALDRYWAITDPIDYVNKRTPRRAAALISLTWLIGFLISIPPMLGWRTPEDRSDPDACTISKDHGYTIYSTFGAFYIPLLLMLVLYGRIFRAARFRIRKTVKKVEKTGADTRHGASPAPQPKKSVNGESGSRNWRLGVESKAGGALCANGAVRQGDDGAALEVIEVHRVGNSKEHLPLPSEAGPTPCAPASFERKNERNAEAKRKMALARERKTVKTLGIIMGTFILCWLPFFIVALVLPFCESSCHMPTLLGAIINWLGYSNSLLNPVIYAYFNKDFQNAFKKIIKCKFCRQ
Outline: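 Using HEK293 lines for the 5-HT2 subtypes and Gα15-coupled CHO cells for 5-HT1A, compounds were tested as agonists. Fluorescent Ca2+ signal followed dye loading (Fluo-4 Direct, 2.5 mM final probenecid, 50 min, 37 °C).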

5-HT1B receptor = target: T3, 5-HT1B receptor (Homo sapiens, UniProt P28222); assay: cAMP accumulation functional assay at 5-HT1B; assay type: cell-based; conditions: for Emax: max dose, read-out: 5-HT1B % Act @ Max Dose; for selectivity for 5-HT2A over 5-HT1B: functional, compared to the N-methyl prototype LSD
T3 construct: expressed in transfected cells
Outline: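 Agonist activity measured as cAMP accumulation in cells stably transfected with human 5-HT1B. Cells incubated 60 min at RT, then detection reagent added for a further 60 min at RT before plate reading.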

5-HT2A receptor [1] = target: T4, 5-HT2A receptor (Homo sapiens, UniProt P28223); assay: cell-based; assay type: cell-based; conditions: beta-arrestin recruitment; for EC50 / Emax: agonist; for EC50: PathHunter, read-out: 5-HT2A Arrestin EC50; for Emax: max dose, read-out: 5-HT2A Arrestin % Act @ Max Dose
Outline: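 PathHunter β-arrestin recruitment (enzyme fragment complementation): 5-HT2A fused to ProLink donor in cells co-expressing β-arrestin–β-galactosidase acceptor, seeded and held at 37° C before testing. Chemiluminescent read-out; agonist % activity = (sample RLU − vehicle)/(max control ligand − vehicle) × 100.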

in vitro [2] = assay type: in vitro ADME, human
in vitro [3] = assay type: in vitro ADME, mouse
Text: MLM Stability Pooled MLM from male CD-1 mice (BIOIVT M00501) were used.

in vitro [4] = assay type: in vitro ADME, rat
Text: RLM Stability Pooled RLM from male Sprague-Dawley rats (Xenotech R1000) were used.

5-HT2A receptor [5] = target: T4, 5-HT2A receptor; assay: cell-based; assay type: cell-based; design: expressed in transfected cells; host or cells: HEK293, stably transfected; conditions: Ca2+ flux; for Emax: HEK293, agonist, HEK293, max dose, read-out: 5-HT2A % Act @ Max Dose
Outline: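 Cells plated and incubated overnight at 37 °C, 5% CO2; Fluo-4 Direct dye with probenecid (final 2.5 mM) added, 50 min at 37 °C; test compounds transferred and Ca2+ signal recorded. HEK293 hosts for 5-HT2A/2B, CHO + Gα15 for 5-HT1A.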

[6] = HLM 0.50 mg/mL, NADPH 1 mM, 1 μM compound, pH 7.4, 37° C., 60 min
[7] = MLM (male CD-1) 0.50 mg/mL, NADPH 1 mM, 1 μM compound, pH 7.4, 37° C., 60 min
[8] = RLM (male Sprague-Dawley) 0.50 mg/mL, NADPH 1 mM, 1 μM compound, pH 7.4, 37° C., 60 min

T4 sequence (P28223 whole entry, the tested form may be a part): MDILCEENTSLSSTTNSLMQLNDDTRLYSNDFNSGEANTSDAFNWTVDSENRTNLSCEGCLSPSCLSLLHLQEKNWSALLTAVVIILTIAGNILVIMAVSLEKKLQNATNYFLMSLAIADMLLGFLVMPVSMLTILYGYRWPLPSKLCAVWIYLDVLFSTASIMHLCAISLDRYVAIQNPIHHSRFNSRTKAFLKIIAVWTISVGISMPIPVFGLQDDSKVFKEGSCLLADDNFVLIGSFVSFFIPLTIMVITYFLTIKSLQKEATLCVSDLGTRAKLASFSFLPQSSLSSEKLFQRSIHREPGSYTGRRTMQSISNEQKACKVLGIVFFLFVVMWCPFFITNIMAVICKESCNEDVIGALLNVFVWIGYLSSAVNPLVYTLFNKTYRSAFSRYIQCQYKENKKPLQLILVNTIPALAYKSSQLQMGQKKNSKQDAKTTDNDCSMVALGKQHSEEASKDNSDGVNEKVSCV
T1 sequence (P41595 whole entry): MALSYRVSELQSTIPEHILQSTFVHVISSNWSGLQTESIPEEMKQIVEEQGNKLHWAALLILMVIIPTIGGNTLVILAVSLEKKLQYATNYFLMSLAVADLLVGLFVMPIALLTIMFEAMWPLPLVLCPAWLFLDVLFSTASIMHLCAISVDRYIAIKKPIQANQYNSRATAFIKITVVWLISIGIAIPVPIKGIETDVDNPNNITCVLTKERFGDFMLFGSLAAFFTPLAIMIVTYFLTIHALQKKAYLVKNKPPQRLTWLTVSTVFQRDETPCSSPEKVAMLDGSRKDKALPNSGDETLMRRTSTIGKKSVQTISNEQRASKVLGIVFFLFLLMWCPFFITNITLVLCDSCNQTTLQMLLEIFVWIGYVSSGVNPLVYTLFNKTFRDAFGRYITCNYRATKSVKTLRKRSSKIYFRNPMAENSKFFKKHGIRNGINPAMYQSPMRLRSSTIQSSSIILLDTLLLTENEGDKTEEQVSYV
T3 sequence (P28222 whole entry): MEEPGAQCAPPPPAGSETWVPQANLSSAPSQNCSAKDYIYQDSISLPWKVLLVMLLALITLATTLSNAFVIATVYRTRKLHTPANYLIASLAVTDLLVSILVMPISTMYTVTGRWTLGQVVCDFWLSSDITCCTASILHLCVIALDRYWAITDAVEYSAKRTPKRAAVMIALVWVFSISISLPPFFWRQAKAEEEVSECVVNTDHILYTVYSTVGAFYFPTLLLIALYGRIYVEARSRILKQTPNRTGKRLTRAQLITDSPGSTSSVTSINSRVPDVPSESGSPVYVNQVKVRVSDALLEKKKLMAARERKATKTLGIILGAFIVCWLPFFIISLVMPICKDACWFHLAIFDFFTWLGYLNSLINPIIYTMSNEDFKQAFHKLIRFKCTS

SMILES | Emax (5-HT2B receptor) [%] | Emax (5-HT1A receptor) [%] | Emax (5-HT1B receptor; agonist, cAMP accumulation) [%] | EC50 (5-HT2A receptor [1]) [nM] | Emax (5-HT2A receptor [1]) [%] | Intrinsic clearance (Clint) (in vitro [2]; [6]) [µL/min/mg] | half-life (t1/2) (in vitro [2]; [6]) [min] | Intrinsic clearance (Clint) (in vitro [3]; [7]) [µL/min/mg] | half-life (t1/2) (in vitro [3]; [7]) [min] | Intrinsic clearance (Clint) (in vitro [4]; [8]) [µL/min/mg] | half-life (t1/2) (in vitro [4]; [8]) [min] | Emax (5-HT2A receptor [5]) [%] | selectivity for 5-HT2A over 5-HT1B (5-HT1B receptor) | 5-HT2A arrestin agonist class (5-HT2A receptor [1]) | stability in HLM (in vitro [2]) | stability in MLM (in vitro [3]) | stability in RLM (in vitro [4]) | also measured
CCN(CC)C(=O)[C@@H]1C=C2c3cccc4[nH]cc(c34)C[C@H]2N(Cc2ccc(OC)cc2)C1 [Compound 19, (6aR,9R)—N,N-diethyl-7-(4-methoxybenzyl)-4,6,6a,7,8,9-hexahydroindolo[4,3-fg]quinoline-9-carboxamide] | 2.44 | -0.65 | 71.1 | 13.5 | 42.3 | 82.7 | 16.8 | 192.7 | 7.2 | 139.0 | 10.0 | 70.5 | – | – | – | – | – | –
CCN(CC)C(=O)[C@@H]1C=C2c3cccc4[nH]cc(c34)C[C@H]2N(CCCF)C1 [Compound 2, (6aR,9R)—N,N-diethyl-7-(3-fluoropropyl)-4,6,6a,7,8,9-hexahydroindolo[4,3-fg]quinoline-9-carboxamide] | 101 | 92.4 | 90 | – | 115 | – | 19.061 | – | 2.666 | – | 11.972 | 97.8 | greater selectivity for 5-HT2A over 5-HT1B | full agonists | much lower stability (higher clearance) | much lower stability (higher clearance) | much lower stability (higher clearance) | –
CCN(CC)C(=O)[C@@H]1C=C2c3cccc4[nH]cc(c34)C[C@H]2N(Cc2ccccc2)C1 [Compound 82, (6aR,9R)-7-benzyl-N,N-diethyl-4,6,6a,7,8,9-hexahydroindolo[4,3-fg]quinoline-9-carboxamide] | 13.3 | 27.8 | 62.8 | 1.73 | 26.1 | – | – | – | – | – | – | 61.4 | – | – | – | – | – | EC50 (5-HT2B receptor; agonist, HEK293): > 10 µM; EC50 (5-HT1A receptor; CHO cells with Gα15): 3.35 µM; EC50 (5-HT1B receptor; agonist, cAMP accumulation): 992 nM; microsomal CLint (in vitro [2]; human, microsomes, HLM 0.50 mg/mL, NADPH 1 mM, 1 μM compound, pH 7.4, 37° C., 60 min, read-out: Intrinsic clearance (Clint)): 106 µL/min/mg; half-life (in vitro [2]; human, microsomes, HLM 0.50 mg/mL, NADPH 1 mM, 1 μM compound, pH 7.4, 37° C., 60 min, read-out: half-life (t1/2)): 13 min; microsomal CLint (in vitro [3]; mouse, microsomes, MLM (male CD-1) 0.50 mg/mL, NADPH 1 mM, 1 μM compound, pH 7.4, 37° C., 60 min, read-out: Intrinsic clearance (Clint)): 553 µL/min/mg; half-life (in vitro [3]; mouse, microsomes, MLM (male CD-1) 0.50 mg/mL, NADPH 1 mM, 1 μM compound, pH 7.4, 37° C., 60 min, read-out: half-life (t1/2)): 2.5 min; microsomal CLint (in vitro [4]; rat, microsomes, RLM (male Sprague-Dawley) 0.50 mg/mL, NADPH 1 mM, 1 μM compound, pH 7.4, 37° C., 60 min, read-out: Intrinsic clearance (Clint)): 190 µL/min/mg; half-life (in vitro [4]; rat, microsomes, RLM (male Sprague-Dawley) 0.50 mg/mL, NADPH 1 mM, 1 μM compound, pH 7.4, 37° C., 60 min, read-out: half-life (t1/2)): 7.3 min; EC50 (5-HT2A receptor [5]; agonist, HEK293): 422 nM
CCN(CC)C(=O)[C@@H]1C=C2c3cccc4[nH]cc(c34)C[C@H]2N(Cc2ccccc2OC)C1 [Compound 10, (6aR,9R)—N,N-diethyl-7-(2-methoxybenzyl)-4,6,6a,7,8,9-hexahydroindolo[4,3-fg]quinoline-9-carboxamide] | 2 | 53 | 87.3 | – | 47.1 | 190.3 | 7.3 | 1396.8 | 1 | 407.4 | 3.4 | 49.4 | – | – | much lower stability (higher clearance) | much lower stability (higher clearance) | much lower stability (higher clearance) | –
CCCN1C[C@H](C(=O)NC(CC)CC)C=C2c3cccc4[nH]cc(c34)C[C@H]21 [Compound 6, (6aR,9R)—N-(pentan-3-yl)-7-propyl-4,6,6a,7,8,9-hexahydroindolo[4,3-fg]quinoline-9-carboxamide] | 92.9 | 102 | 94.6 | – | 103 | – | 1.607 | – | 0.6 | – | 1.655 | 94.6 | greater selectivity for 5-HT2A over 5-HT1B | full agonists | much lower stability (higher clearance) | much lower stability (higher clearance) | much lower stability (higher clearance) | –
